From patent US20190337924A1, “SUBSTITUTED HYDANTOIN AND THIOHYDANTOIN DERIVATIVES AS ANDROGEN RECEPTOR ANTAGONISTS” (Janssen Pharmaceutica NV, priority 2016, published 2019)
Counter-ions that a name gives are not always drawn. Like-named read-outs stand apart in the source and are kept apart here.

Molecular target: T1, F876L mutant Androgen Receptor (AR-F876L) (Homo sapiens, UniProt P10275, F877L)
T1 construct: expressed in transfected cells; host or cells: LNCaP
T1 sequence (P10275 1-920 F877L): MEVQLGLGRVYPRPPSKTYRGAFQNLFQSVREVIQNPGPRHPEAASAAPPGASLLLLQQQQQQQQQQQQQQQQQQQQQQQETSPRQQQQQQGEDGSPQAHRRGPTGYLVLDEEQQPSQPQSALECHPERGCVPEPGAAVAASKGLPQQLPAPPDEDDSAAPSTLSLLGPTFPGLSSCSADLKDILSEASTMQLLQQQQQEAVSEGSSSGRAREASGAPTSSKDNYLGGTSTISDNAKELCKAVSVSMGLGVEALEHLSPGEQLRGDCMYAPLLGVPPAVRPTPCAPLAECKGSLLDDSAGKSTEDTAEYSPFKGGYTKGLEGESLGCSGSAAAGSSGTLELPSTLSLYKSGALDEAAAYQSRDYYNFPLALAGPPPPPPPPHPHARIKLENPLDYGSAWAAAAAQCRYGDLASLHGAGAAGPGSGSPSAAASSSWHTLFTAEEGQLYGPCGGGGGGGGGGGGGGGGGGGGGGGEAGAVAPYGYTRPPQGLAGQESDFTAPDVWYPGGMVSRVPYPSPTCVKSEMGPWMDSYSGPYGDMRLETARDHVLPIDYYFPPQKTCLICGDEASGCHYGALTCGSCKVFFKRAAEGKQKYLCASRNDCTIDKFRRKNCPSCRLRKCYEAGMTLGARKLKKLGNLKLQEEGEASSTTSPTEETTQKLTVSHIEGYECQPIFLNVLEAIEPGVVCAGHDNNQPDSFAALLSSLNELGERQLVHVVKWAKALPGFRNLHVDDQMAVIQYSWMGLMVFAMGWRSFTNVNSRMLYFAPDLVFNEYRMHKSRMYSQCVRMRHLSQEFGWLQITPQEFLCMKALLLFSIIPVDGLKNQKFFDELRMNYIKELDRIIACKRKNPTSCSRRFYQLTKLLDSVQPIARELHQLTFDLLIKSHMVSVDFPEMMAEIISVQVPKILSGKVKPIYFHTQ
Experiment: AR reporter assay, LNCaP-AR-F876L AG (agonist mode)
Type: cell-based
Settings: for Emax: read-out: LNCaP-AR-F876L AG MAX % Stim
Description: LNCaP AR (cs) and LNCaP F876L luciferase cell lines were generated by transduction of each cell line (description of cell line generation Joseph J D, Lu N, Qian J, Sensintaffar J, Shao G, Brigham D, Moon M, Maneval E C, Chen I, Darimont B, Hager J H. A clinically relevant androgen receptor mutation confers resistance to second-generation antiandrogens enzalutamide and ARN-509. Cancer Discov 2013; 3:1020-1029) with an Androgen Response Element Firefly Luciferase lentiviral construct at an MOI (multiplicity of infection) of 50 following the manufacturer's instructions (Qiagen). A stable pooled-population cell line was generated using puromycin (Life Technologies) selection at 1:10,000 v/v. The protocol below was used for both cell lines and for testing of the compounds of Formula (I) of the present invention.
LNCaP cells were grown to about 80% confluence, media removed and cells rinsed in Hank's balanced salt solution prior to separation from the plate with 0.05% Trypsin EDTA. Cells were lifted and trypsin negated in complete CSS (charcoal stripped serum) culture media. CSS was maintained on cells for 24 h prior to assay, at which time 5,000 cells/[…] were seeded in Greiner 384 well White/White Tissue Culture Treated Plates and incubated for a further 1-2 hours at 37° C., 5% CO2, prior to addition of 10 μL of 4× Test Compounds (compounds described herein) or Assay Controls (all diluted in complete media containing 10% css). A further 10 μL of 4× R-1881 Agonist Challenge (antagonist assay) or Buffer (agonist assay) was then added (all diluted in complete media containing 10% css). Agonist challenge was at 400 pM for WT assay and 600 pM for F876L assay. Plates containing cells and compounds herein were incubated for a further 20-24 hours at 37° C., 5% CO2 before addition of 40 μL/well of Steady-Glo Luciferase Assay System Reagent (Promega#E2520). After 1 h, plates were read for luminescence on a BMG Pherastar.
((Sample RLU−Ave Low Control RLU[DMSO/Buffer])/(Ave High Control RLU [1 μM R-1881]—Ave Low Control RLU[DMSO/Buffer]))*100.
EC/IC50 calculations were achieved utilizing calculated RLU data and data fitting macros. Data were fit using least-squares methods to the following formula: […]
As used herein: • pIC50 is defined as −Log10(IC50 expressed in [Molar]). • pEC50 is defined as −Log10(EC50 expressed in [Molar]). • MAX % Inh is defined as the maximum % inhibition of R1881 control response observed for a compound over the tested concentration range. • MAX % Stim is defined as the maximum % stimulation (agonist response) observed for a compound over the tested concentration range. • LNCaP-AR-wt ANT refers to the reporter assay using LNCaP cells stably transfected with the Androgen Response Element Firefly Luciferase lentiviral construct and wild-type Androgen Receptor (AR-wt) in Antagonist mode. • LNCaP-AR-wt AG refers to the reporter assay using LNCaP cells stably transfected with the Androgen Response Element Firefly Luciferase lentiviral construct and wild-type Androgen Receptor (AR-wt) in Agonist mode. • LNCaP-AR-F876L ANT refers to the reporter assay using LNCaP cells stably transfected with the Androgen Response Element Firefly Luciferase lentiviral construct and F876L mutant Androgen Receptor (AR-F876L) in Antagonist mode. • LNCaP-AR-F876L AG refers to the reporter assay using LNCaP cells stably transfected with the Androgen Response Element Firefly Luciferase lentiviral construct and F876L mutant Androgen Receptor (AR-F876L) in Agonist mode.

CN1CCC(Oc2ncc(N3C(=S)N(c4ccc(C#N)c(C(F)(F)F)c4)C(=O)C34CCC4)cn2)CC1 [Compound 16, 4-(5-(2-((1-Methylpiperidin-4-yl)oxy)pyrimidin-5-yl)-8-oxo-6-thioxo-5,7-diazaspiro[3.4]octan-7-yl)-2-(trifluoromethyl)benzonitrile]
EC50: > 15.1 µM
Emax: 0.1%

CN1CCC(Oc2ccc(N3C(=S)N(c4ccc(C#N)c(C(F)(F)F)c4)C(=O)C3(C)C)cn2)CC1 [Compound 4, 4-(4,4-Dimethyl-3-(6-((1-methylpiperidin-4-yl)oxy)pyridin-3-yl)-5-oxo-2-thioxoimidazolidin-1-yl)-2-(trifluoromethyl)benzonitrile hydrochloride]
EC50: > 15.1 µM
Emax: 0.1%

N#Cc1ccc(N2C(=O)C3(CCC3)N(c3ccc(OC4CCNCC4)nc3)C2=S)cc1C(F)(F)F [Compound 13, 4-(8-Oxo-5-(6-(piperidin-4-yloxy)pyridin-3-yl)-6-thioxo-5,7-diazaspiro[3.4]octan-7-yl)-2-(trifluoromethyl)benzonitrile hydrochloride]
EC50: > 15.1 µM
Emax: 0%

COc1cc(N2C(=O)C3(CCC3)N(c3ccc(OC4CCN(C)CC4)nc3)C2=S)ccc1C#N [Compound 20, 2-Methoxy-4-(5-(6-((1-methylpiperidin-4-yl)oxy)pyridin-3-yl)-8-oxo-6-thioxo-5,7-diazaspiro[3.4]octan-7-yl)benzonitrile]
EC50: > 15.1 µM
Emax: 0.3%

CN1CCC(Oc2ncc(N3C(=S)N(c4ccc(C#N)c(C(F)(F)F)c4)C(=O)C3(C)C)cn2)CC1 [Compound 6, 4-(4,4-Dimethyl-3-(2-((1-methylpiperidin-4-yl)oxy)pyrimidin-5-yl)-5-oxo-2-thioxoimidazolidin-1-yl)-2-(trifluoromethyl)benzonitrile]
EC50: > 15.1 µM
Emax: -0.1%

Cc1cc(N2C(=O)C3(CCC3)N(c3ccc(OC4CCN(C)CC4)cc3)C2=S)ccc1C#N [Compound 17, 2-Methyl-4-(5-(4-((1-methylpiperidin-4-yl)oxy)phenyl)-8-oxo-6-thioxo-5,7-diazaspiro[3.4]octan-7-yl)benzonitrile]
EC50 (agonist mode (buffer, no R-1881), -Log10(EC50 in Molar), read-out: LNCaP-AR-F876L AG pEC50 (converted)): > 15.1 µM
Emax: 0.2%
